Patent publication US20250230138A1, “COMPOUNDS HAVING A T-STRUCTURE FORMED BY AT LEAST FOUR CYCLES FOR USE IN THE TREATMENT OF CANCER AND OTHER INDICATIONS” (TheRas, Inc., priority 2022, published 2025)

Legend:
[1] = molecular target: Cys242 in human PIK3CA (157-299) (Homo sapiens (Human), UniProt P42336); experiment: Covalent modification assay using MALDI-TOF MS; assay type: biochemical; details: 4 h reaction time point; 3.33 μM protein target, 1:7.5 protein to compound ratio (compounds 1-852)
Method in brief: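 PIK3CA (157-299), 3.33 or 1 μM in 20 mM HEPES, 150 mM NaCl, 2 mM MgCl2, pH 7.3, was incubated with compound at room temperature in the dark for 15 min, 30 min, 2 h or 4 h. Linear MALDI-TOF read-out; % modification = adduct peak height over summed heights of all protein species.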

[2] = system: pAKT in BT474 cells; experiment: Cell-based pAKT HTRF assay in BT474 cells; details: BT474 cells; 4 hr incubation; Compounds 10-999; read-out: pAKT inhibition IC50 in BT474 cells
Method in brief: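 Compound titration: 3 μM downward in 3-fold steps, nine points, 4 hr on cells. Detection: lysis, then d2 plus Eu Cryptate antibody mix, room-temperature incubation of 4–24 h, and time-resolved fluorescence read at 615 nm.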

Chain of Cys242 in human PIK3CA (157-299) (P42336 157-299): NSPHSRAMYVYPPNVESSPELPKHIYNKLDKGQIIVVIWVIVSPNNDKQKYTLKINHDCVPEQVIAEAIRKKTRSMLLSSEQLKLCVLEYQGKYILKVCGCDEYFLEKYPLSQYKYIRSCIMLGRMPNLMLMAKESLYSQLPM

| SMILES | IC50 [2] [µM] | % of modification [1] |
| --- | --- | --- |
| C=CC(=O)N1CCn2nc(-c3nc(-c4cn(C)cn4)c4ccsc4c3-c3c(F)cc(F)cc3OCCOC)cc2[C@H]1C [Compound 741] | < 0.1 | A (percent of modification of PIK3CA protein ≥75%) |
| C=CC(=O)N1Cc2cc(-c3nc(-c4ccc5cn(C)nc5c4)c4ccsc4c3-c3c(F)cc(F)cc3OCCOC)nn2[C@@H](C)C1 [Compound 742] | < 0.1 | A (percent of modification of PIK3CA protein ≥75%) |
| C=CC(=O)N1Cc2cc(-c3nc(-c4ccc5c(c4)CS(=O)(=O)C5)c4ccsc4c3-c3c(F)cc(F)cc3OCCOC)nn2C[C@H]1C [Compound 746] | < 0.1 | A (percent of modification of PIK3CA protein ≥75%) |
| C=CC(=O)N1CCn2nc(-c3nc(-c4ccc5cn(C)nc5c4)c4ccsc4c3-c3c(F)cc(F)cc3OCCOC)cc2[C@H]1C [Compound 747] | < 0.1 | A (percent of modification of PIK3CA protein ≥75%) |
| C=CC(=O)N1CCn2nc(-c3nc(-c4ccc5ncn(C)c5c4)c4ccsc4c3-c3c(F)cc(F)cc3OC[C@@H](C)O)cc2[C@H]1C [Compound 748] | < 0.1 | A (percent of modification of PIK3CA protein ≥75%) |
| C=CC(=O)N1CCn2nc(-c3nc(-c4ccc5nn(C)cc5c4)c4ccsc4c3-c3c(F)cc(F)cc3OCCOC)cc2[C@H]1C [Compound 749] | < 0.1 | A (percent of modification of PIK3CA protein ≥75%) |
| C=CC(=O)N1CCn2nc(-c3nc(-c4cnc5c(c4)CNC(=O)C5)c4ccsc4c3-c3c(F)cc(F)cc3OCCOC)cc2[C@H]1C [Compound 750] | < 0.1 | A (percent of modification of PIK3CA protein ≥75%) |
| C=CC(=O)N1CCn2nc(-c3nc(-c4ccc5c(cnn5C)c4)c4ccsc4c3-c3c(F)cc(F)cc3OCCOC)cc2[C@H]1C [Compound 758, 1-((R)-2-((S)-7-(2,4-difluoro-6-(2-methoxyethoxy)phenyl)-4-(1-methyl-1H-indazol-5-yl)thieno[3,2-c]pyridin-6-yl)-4-methyl-6,7-dihydropyrazolo[1,5-a]pyrazin-5(4H)-yl)prop-2-en-1-one] | < 0.1 | A (percent of modification of PIK3CA protein ≥75%) |
| C=CC(=O)N1CCn2nc(-c3nc(-c4ccc5nn(C)cc5c4)c4ccsc4c3-c3c(F)cc(F)cc3OC[C@@H](C)O)cc2[C@H]1C [Compound 760] | < 0.1 | A (percent of modification of PIK3CA protein ≥75%) |
| C=CC(=O)N1CCn2nc(-c3nc(-c4ccc5c(c4)ncn5C)c4ccsc4c3-c3c(F)cc(F)cc3OC[C@@H](C)O)cc2[C@H]1C [Compound 761] | < 0.1 | A (percent of modification of PIK3CA protein ≥75%) |
| C=CC(=O)N1CCn2nc(-c3nc(-c4ccc5c(c4)CNC5=O)c4ccsc4c3-c3c(F)cc(F)cc3OC[C@@H](C)O)cc2[C@H]1C [Compound 762] | < 0.1 | A (percent of modification of PIK3CA protein ≥75%) |
| C=CC(=O)N1CCn2nc(-c3nc(-c4ccc5c(c4)CN(C)C5=O)c4ccsc4c3-c3c(F)cc(F)cc3OC[C@@H](C)O)cc2[C@H]1C [Compound 763] | < 0.1 | A (percent of modification of PIK3CA protein ≥75%) |
| C=CC(=O)N1CCn2nc(-c3nc(-c4ccc5cn(C)nc5c4)c4ccsc4c3-c3c(F)cc(F)cc3OCCOC)cc2C1C (centres unmarked) [Compound 766] | < 0.1 | A (percent of modification of PIK3CA protein ≥75%) |
| C=CC(=O)N1CCn2nc(-c3nc(-c4ccc5c(cnn5C)c4)c4ccsc4c3-c3c(F)cc(F)cc3OCC(C)O)cc2C1C (centres unmarked) [Compound 767] | < 0.1 | A (percent of modification of PIK3CA protein ≥75%) |
| C=CC(=O)N1Cc2cc(-c3nc(-c4ccc5c(c4)C(=O)NC5)c4ccsc4c3-c3c(F)cc(F)cc3OCCOC)nn2CC1C (centres unmarked) [Compound 768] | < 0.1 | A (percent of modification of PIK3CA protein ≥75%) |
| C=CC(=O)N1CCn2nc(-c3nc(-c4ccc5cnn(C)c5c4)c4ccsc4c3-c3c(F)cc(F)cc3OCC(C)O)cc2C1C (centres unmarked) [Compound 769] | < 0.1 | A (percent of modification of PIK3CA protein ≥75%) |
| C=CC(=O)N1CCn2nc(-c3nc(-c4ccc5cn(C)nc5c4)c4ccsc4c3-c3c(F)cc(F)cc3OC[C@@H](C)O)cc2[C@@H]1C [Compound 770, 1-((S)-2-((S)-7-(2,4-difluoro-6-((R)-2-hydroxypropoxy)phenyl)-4-(2-methyl-2H-indazol-6-yl)thieno[3,2-c]pyridin-6-yl)-4-methyl-6,7-dihydropyrazolo[1,5-a]pyrazin-5(4H)-yl)prop-2-en-1-one] | < 0.1 | A (percent of modification of PIK3CA protein ≥75%) |
| C=CC(=O)N1CCn2nc(-c3nc(-c4ccc5ncn(C)c5c4)c4ccsc4c3-c3c(F)cc(F)cc3OCCO)cc2C1C (centres unmarked) [Compound 773] | < 0.1 | A (percent of modification of PIK3CA protein ≥75%) |
| C=CC(=O)N1CCn2nc(-c3nc(-c4ccc5nn(C)cc5c4)c4ccsc4c3-c3c(F)cc(F)cc3OCCO)cc2[C@H]1C [Compound 774] | < 0.1 | A (percent of modification of PIK3CA protein ≥75%) |
| C=CC(=O)N1CCn2nc(-c3nc(-c4ccc5c(c4)ncn5C)c4ccsc4c3-c3c(F)cc(F)cc3OCCO)cc2[C@H]1C [Compound 775] | < 0.1 | A (percent of modification of PIK3CA protein ≥75%) |
| C=CC(=O)N1CCn2nc(-c3nc(-c4ccc5cnn(C)c5c4)c4ccsc4c3-c3c(F)cc(F)cc3OCCO)cc2[C@H]1C [Compound 776] | < 0.1 | A (percent of modification of PIK3CA protein ≥75%) |
| C=CC(=O)N1CCn2nc(-c3nc(-c4cn(C)cn4)c4ccsc4c3-c3c(F)cc(F)cc3OCCOC)cc2[C@@H]1C [Compound 777] | < 0.1 | A (percent of modification of PIK3CA protein ≥75%) |

Continued, in another order:

| IC50 [2] [µM] | SMILES | % of modification [1] |
| --- | --- | --- |
| < 0.1 | C=CC(=O)N1Cc2cc(-c3nc(-c4cnnc(C)c4)c4ccsc4c3-c3c(F)cc(F)cc3OCCOC)nn2[C@@H](C)C1 [Compound 740] | A (percent of modification of PIK3CA protein ≥75%) |
| < 0.1 | C=CC(=O)N1Cc2cc(-c3nc(-c4cnnc(C)c4)c4ccsc4c3-c3c(F)cc(F)cc3OC[C@@H](C)O)nn2C[C@H]1C [Compound 743] | A (percent of modification of PIK3CA protein ≥75%) |
| < 0.1 | C=CC(=O)N1CCn2nc(-c3nc(-c4cn(C)cn4)c4ccsc4c3-c3c(F)cc(F)cc3OC[C@@H](C)O)cc2[C@H]1C [Compound 744] | A (percent of modification of PIK3CA protein ≥75%) |
| < 0.1 | C=CC(=O)N1Cc2cc(-c3nc(-c4cn(C)cn4)c4ccsc4c3-c3c(F)cc(F)cc3OC[C@@H](C)O)nn2C[C@H]1C [Compound 745] | A (percent of modification of PIK3CA protein ≥75%) |
| < 0.1 | C=CC(=O)N1CCn2nc(-c3nc(-c4cnnc(C)c4)c4ccsc4c3-c3c(F)cc(F)cc3OC[C@@H](C)O)cc2[C@H]1C [Compound 751] | A (percent of modification of PIK3CA protein ≥75%) |
| < 0.1 | C=CC(=O)N1Cc2cc(-c3nc(-c4ccc5cn(C)nc5c4)c4ccsc4c3-c3c(F)cc(F)cc3OC[C@@H](C)O)nn2C[C@H]1C [Compound 752] | A (percent of modification of PIK3CA protein ≥75%) |
| < 0.1 | C=CC(=O)N1CCn2nc(-c3nc(-c4cnn(C)c4)c4ccsc4c3-c3c(F)cc(F)cc3OC[C@@H](C)O)cc2[C@H]1C [Compound 753] | A (percent of modification of PIK3CA protein ≥75%) |
| < 0.1 | C=CC(=O)N1Cc2cc(-c3nc(-c4ccc5nn(C)cc5c4)c4ccsc4c3-c3c(F)cc(F)cc3OC[C@@H](C)O)nn2C[C@H]1C [Compound 754] | A (percent of modification of PIK3CA protein ≥75%) |
| < 0.1 | C=CC(=O)N1Cc2cc(-c3nc(-c4ccc5cnn(C)c5c4)c4ccsc4c3-c3c(F)cc(F)cc3OC[C@@H](C)O)nn2C[C@H]1C [Compound 755] | A (percent of modification of PIK3CA protein ≥75%) |
| < 0.1 | C=CC(=O)N1Cc2cc(-c3nc(-c4ccc5c(c4)CNC5=O)c4ccsc4c3-c3c(F)cc(F)cc3OC[C@@H](C)O)nn2C[C@H]1C [Compound 756] | A (percent of modification of PIK3CA protein ≥75%) |
| < 0.1 | C=CC(=O)N1Cc2cc(-c3nc(-c4cnc(C)nc4)c4ccsc4c3-c3c(F)cc(F)cc3OC[C@@H](C)O)nn2C[C@H]1C [Compound 757] | A (percent of modification of PIK3CA protein ≥75%) |
| < 0.1 | C=CC(=O)N1CCn2nc(-c3nc(-c4cnnc(C)c4)c4ccsc4c3-c3c(F)cc(F)cc3OCCOC)cc2C1C (centres unmarked) [Compound 764] | A (percent of modification of PIK3CA protein ≥75%) |
| < 0.1 | C=CC(=O)N1Cc2cc(-c3nc(-c4ccc5ncn(C)c5c4)c4ccsc4c3-c3c(F)cc(F)cc3OCC(C)O)nn2CC1C (centres unmarked) [Compound 765] | A (percent of modification of PIK3CA protein ≥75%) |
| < 0.1 | C=CC(=O)N1CCn2nc(-c3nc(-c4cnc(C)nc4)c4ccsc4c3-c3c(F)cc(F)cc3OCC(C)O)cc2C1C (centres unmarked) [Compound 771] | A (percent of modification of PIK3CA protein ≥75%) |
| < 0.1 | C=CC(=O)N1Cc2cc(-c3nc(-c4cnn(C(F)F)c4)c4ccsc4c3-c3c(F)cc(F)cc3OCCOC)nn2CC1C (centres unmarked) [Compound 772] | A (percent of modification of PIK3CA protein ≥75%) |
